Measurements taken from PubChem BioAssay (NCI).
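48-hour exposure; five concentrations; linearly interpolated endpoints. TGI denotes the concentration required for complete inhibition of growth.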

Assays:
Test in all cases: NCI-60 cell line screen, 48 h
CAKI-1 renal = tested on: CAKI-1 renal
UO-31 renal = tested on: UO-31 renal
A498 renal = tested on: A498 renal
U251 CNS = tested on: U251 CNS
SK-MEL-5 melanoma = tested on: SK-MEL-5 melanoma
NCI/ADR-RES ovarian = tested on: NCI/ADR-RES ovarian
786-0 renal = tested on: 786-0 renal
ACHN renal = tested on: ACHN renal
OVCAR-5 ovarian = tested on: OVCAR-5 ovarian
MOLT-4 leukemia = tested on: MOLT-4 leukemia
NCI-H226 lung = tested on: NCI-H226 lung
UACC-62 melanoma = tested on: UACC-62 melanoma
SK-MEL-2 melanoma = tested on: SK-MEL-2 melanoma
PC-3 prostate = tested on: PC-3 prostate
BT-549 breast = tested on: BT-549 breast
KM12 colon = tested on: KM12 colon
TK-10 renal = tested on: TK-10 renal
OVCAR-8 ovarian = tested on: OVCAR-8 ovarian
HS 578T breast = tested on: HS 578T breast
SNB-19 CNS = tested on: SNB-19 CNS
T-47D breast = tested on: T-47D breast
COLO 205 colon = tested on: COLO 205 colon
MDA-N = tested on: MDA-N
HOP-92 NSCLC = tested on: HOP-92 NSCLC
MDA-MB-231 breast = tested on: MDA-MB-231 breast
HCT-116 colon = tested on: HCT-116 colon
HL-60(TB) leukemia = tested on: HL-60(TB) leukemia
OVCAR-4 ovarian = tested on: OVCAR-4 ovarian
SW-620 colon = tested on: SW-620 colon
SK-MEL-28 melanoma = tested on: SK-MEL-28 melanoma
HCC-2998 colon = tested on: HCC-2998 colon
MDA-MB-435 = tested on: MDA-MB-435
OVCAR-3 ovarian = tested on: OVCAR-3 ovarian
HT29 colon = tested on: HT29 colon
SF-539 CNS = tested on: SF-539 CNS
NCI-H522 lung = tested on: NCI-H522 lung
IGROV1 ovarian = tested on: IGROV1 ovarian
A549 NSCLC = tested on: A549 NSCLC
M14 melanoma = tested on: M14 melanoma
NCI-H23 lung = tested on: NCI-H23 lung
CCRF-CEM leukemia = tested on: CCRF-CEM leukemia
DU-145 prostate = tested on: DU-145 prostate
RPMI-8226 leukemia = tested on: RPMI-8226 leukemia
SNB-75 CNS = tested on: SNB-75 CNS
UACC-257 melanoma = tested on: UACC-257 melanoma
MALME-3M melanoma = tested on: MALME-3M melanoma
SN12C renal = tested on: SN12C renal
SF-268 CNS = tested on: SF-268 CNS
HCT-15 colon = tested on: HCT-15 colon
MCF7 breast = tested on: MCF7 breast
SF-295 CNS = tested on: SF-295 CNS
NCI-H460 lung = tested on: NCI-H460 lung
EKVX NSCLC = tested on: EKVX NSCLC
SK-OV-3 ovarian = tested on: SK-OV-3 ovarian
K-562 leukemia = tested on: K-562 leukemia
LOX IMVI melanoma = tested on: LOX IMVI melanoma
HOP-62 NSCLC = tested on: HOP-62 NSCLC
RXF 393 renal = tested on: RXF 393 renal

COc1cc2oc3c(c(=O)c2c(O)c1/C=C/C(C)C)C(C=C(C)C)Oc1cc(O)ccc1-3 (configuration not stated)
TGI (CAKI-1 renal): 32.2 µM | TGI (UO-31 renal): 25.2 µM | TGI (A498 renal): 40.3 µM | TGI (U251 CNS): 31.1 µM | TGI (SK-MEL-5 melanoma): 39.9 µM | TGI (NCI/ADR-RES ovarian): 31.1 µM | TGI (786-0 renal): 30.6 µM | TGI (ACHN renal): 29.4 µM | TGI (OVCAR-5 ovarian): 31.1 µM | TGI (MOLT-4 leukemia): 25.8 µM | TGI (NCI-H226 lung): 32.7 µM | TGI (UACC-62 melanoma): 32.3 µM | TGI (SK-MEL-2 melanoma): 29.9 µM | TGI (PC-3 prostate): 29.4 µM | TGI (BT-549 breast): 23.4 µM | TGI (KM12 colon): 34.5 µM | TGI (TK-10 renal): 31.5 µM | TGI (OVCAR-8 ovarian): 30.8 µM | TGI (HS 578T breast): 38.2 µM | TGI (SNB-19 CNS): 30.6 µM | TGI (T-47D breast): 31 µM | TGI (COLO 205 colon): 29.4 µM | TGI (MDA-N): 31.9 µM | TGI (HOP-92 NSCLC): 29.3 µM | TGI (MDA-MB-231 breast): 33.2 µM | TGI (HCT-116 colon): 28.1 µM | TGI (HL-60(TB) leukemia): 56.1 µM | TGI (OVCAR-4 ovarian): 31.5 µM | TGI (SW-620 colon): 32.3 µM | TGI (SK-MEL-28 melanoma): 31.2 µM | TGI (HCC-2998 colon): 25.2 µM | TGI (MDA-MB-435): 30.8 µM | TGI (OVCAR-3 ovarian): 28.4 µM | TGI (HT29 colon): 28.8 µM | TGI (SF-539 CNS): 31.8 µM | TGI (NCI-H522 lung): 32.3 µM | TGI (IGROV1 ovarian): 27.7 µM | TGI (A549 NSCLC): 28.8 µM | TGI (M14 melanoma): 27.3 µM | TGI (NCI-H23 lung): 30.5 µM | TGI (CCRF-CEM leukemia): 30.4 µM | TGI (DU-145 prostate): 30.2 µM | TGI (RPMI-8226 leukemia): 33.9 µM | TGI (SNB-75 CNS): 29.4 µM | TGI (UACC-257 melanoma): 32.6 µM | TGI (MALME-3M melanoma): 38.9 µM | TGI (SN12C renal): 30.4 µM | TGI (SF-268 CNS): 36.8 µM | TGI (HCT-15 colon): 31.7 µM | TGI (MCF7 breast): 28.6 µM | TGI (SF-295 CNS): 31.4 µM | TGI (NCI-H460 lung): 30.9 µM | TGI (EKVX NSCLC): 30.3 µM | TGI (SK-OV-3 ovarian): 30.5 µM | TGI (K-562 leukemia): 24.2 µM | TGI (LOX IMVI melanoma): 27.7 µM

O=C(O)c1c(Br)c(Br)c(Br)c(Br)c1C1c2ccc(O)cc2Oc2cc(O)ccc21
TGI (CAKI-1 renal): > 100 µM | TGI (UO-31 renal): > 100 µM | TGI (A498 renal): > 100 µM | TGI (U251 CNS): > 100 µM | TGI (HOP-62 NSCLC): > 100 µM | TGI (SK-MEL-5 melanoma): > 100 µM | TGI (NCI/ADR-RES ovarian): > 100 µM | TGI (786-0 renal): > 100 µM | TGI (ACHN renal): > 100 µM | TGI (OVCAR-5 ovarian): > 100 µM | TGI (MOLT-4 leukemia): > 100 µM | TGI (NCI-H226 lung): > 100 µM | TGI (UACC-62 melanoma): > 100 µM | TGI (SK-MEL-2 melanoma): > 100 µM | TGI (PC-3 prostate): > 100 µM | TGI (BT-549 breast): > 100 µM | TGI (KM12 colon): > 100 µM | TGI (TK-10 renal): > 100 µM | TGI (OVCAR-8 ovarian): > 100 µM | TGI (HS 578T breast): > 100 µM | TGI (SNB-19 CNS): > 100 µM | TGI (T-47D breast): > 100 µM | TGI (COLO 205 colon): > 100 µM | TGI (MDA-N): > 100 µM | TGI (HOP-92 NSCLC): > 100 µM | TGI (MDA-MB-231 breast): > 100 µM | TGI (HCT-116 colon): > 100 µM | TGI (HL-60(TB) leukemia): 30.1 µM | TGI (OVCAR-4 ovarian): > 100 µM | TGI (SW-620 colon): > 100 µM | TGI (SK-MEL-28 melanoma): > 100 µM | TGI (HCC-2998 colon): > 100 µM | TGI (MDA-MB-435): > 100 µM | TGI (OVCAR-3 ovarian): > 100 µM | TGI (HT29 colon): > 100 µM | TGI (SF-539 CNS): > 100 µM | TGI (NCI-H522 lung): > 100 µM | TGI (IGROV1 ovarian): > 100 µM | TGI (A549 NSCLC): > 100 µM | TGI (M14 melanoma): > 100 µM | TGI (RXF 393 renal): > 100 µM | TGI (DU-145 prostate): > 100 µM | TGI (RPMI-8226 leukemia): > 100 µM | TGI (SNB-75 CNS): > 100 µM | TGI (UACC-257 melanoma): > 100 µM | TGI (MALME-3M melanoma): > 100 µM | TGI (SN12C renal): > 100 µM | TGI (SF-268 CNS): > 100 µM | TGI (HCT-15 colon): > 100 µM | TGI (MCF7 breast): > 100 µM | TGI (SF-295 CNS): > 100 µM | TGI (NCI-H460 lung): > 100 µM | TGI (EKVX NSCLC): > 100 µM | TGI (SK-OV-3 ovarian): > 100 µM | TGI (K-562 leukemia): > 100 µM | TGI (LOX IMVI melanoma): > 100 µM
